Values joined by “and” are separate entries in the source; they are usually repeats but may differ in a detail not shown here. Equal entries are not always repeated.
How the values were obtained:
[1] = refractive index (Na D-line) (dimensionless); conditions: 101.33 kPa, Liquid, Standard Abbe refractometry
[2] = 101.33 kPa, Liquid; for speed of sound: Sing-around technique in a fixed-path interferometer; for mass density: Vibrating tube method; for viscosity: Concentric cylinders viscometry

COCCOCCOCCOC [2,5,8,11-tetraoxadodecane]
Conditions	mass density, [2]	refractive index, [1]	speed of sound, [2] [m/s]	viscosity, [2] [mPa·s]
283.15 K	994.1 kg/m3	1.42712	1401.4	–
288.15 K	990.8 kg/m3 and 989.4 kg/m3	1.42498	1381.4	2.414
293.15 K	986 kg/m3 and 984.6 kg/m3	1.42284	1361.6	2.162
298.15 K	979.9 kg/m3 and 981.5 kg/m3	1.42071	1342.1	1.956
303.15 K	975.1 kg/m3 and 976.7 kg/m3	1.41862	1322.8	1.777
308.15 K	970.4 kg/m3 and 971.9 kg/m3	–	1303.6	1.623
313.15 K	965.6 kg/m3 and 967.2 kg/m3	1.41434	1284.4	1.439
318.15 K	962.4 kg/m3	–	–	1.373
323.15 K	956.1 kg/m3 and 957.7 kg/m3	1.41005	1246.9	1.27
328.15 K	952.9 kg/m3	–	–	1.179
333.15 K	946.5 kg/m3 and 948.1 kg/m3	1.40579	1209.9	1.064
338.15 K	943.3 kg/m3	–	–	1.026
343.15 K	938.6 kg/m3 and 936.9 kg/m3	1.40153	1174	0.962
348.15 K	933.8 kg/m3	–	–	0.903
353.15 K	929 kg/m3	1.39723	–	0.814
358.15 K	924.2 kg/m3	–	–	0.801
363.15 K	919.4 kg/m3	–	–	0.756
368.15 K	914.5 kg/m3	–	–	0.715
373.15 K	909.7 kg/m3	–	–	0.65

COCCOCCOC [2,5,8-trioxanonane]
Conditions	mass density, [2]	refractive index, [1]	speed of sound, [2] [m/s]	viscosity, [2] [mPa·s]
283.15 K	953.7 kg/m3	1.41249	1340.7	–
288.15 K	950.2 kg/m3 and 948.7 kg/m3	1.4102	1320	1.161
293.15 K	945.2 kg/m3 and 943.8 kg/m3	1.40802	1299.9	1.081
298.15 K	938.8 kg/m3 and 940.2 kg/m3	1.40579	1280	1.011
303.15 K	933.8 kg/m3 and 935.2 kg/m3	1.40359	1260.1	0.942
308.15 K	928.8 kg/m3 and 930.2 kg/m3	–	1240.3	0.879
313.15 K	923.8 kg/m3 and 925.2 kg/m3	1.39921	1220.6	0.825
318.15 K	920.2 kg/m3	–	–	0.767
323.15 K	913.7 kg/m3 and 915.2 kg/m3	1.3949	1181.7	0.718
328.15 K	910.1 kg/m3	–	–	0.674
333.15 K	903.6 kg/m3 and 905 kg/m3	1.3905	1143.4	0.633
338.15 K	899.9 kg/m3	–	–	0.599
343.15 K	894.8 kg/m3 and 893.4 kg/m3	1.38623	1105.8	0.566
348.15 K	889.7 kg/m3	–	–	0.537
353.15 K	884.6 kg/m3	1.38178	–	0.505
358.15 K	879.4 kg/m3	–	–	0.486
363.15 K	874.2 kg/m3	–	–	0.464
368.15 K	869 kg/m3	–	–	0.444
373.15 K	863.8 kg/m3	–	–	0.441

COCCOCCO [2-(2-methoxyethoxy)ethanol]
Conditions	mass density, [2]	refractive index, [1]	speed of sound, [2] [m/s]	viscosity, [2] [mPa·s]
283.15 K	1028.6 kg/m3	1.42914	1467.7	–
288.15 K	1025.3 kg/m3 and 1024.2 kg/m3	1.42723	1450.2	4.514
293.15 K	1021 kg/m3 and 1019.8 kg/m3	1.42498	1432.7	3.963
298.15 K	1015.4 kg/m3 and 1016.3 kg/m3	1.4239	1415.4	3.403
303.15 K	1011 kg/m3 and 1011.9 kg/m3	1.42174	1398.1	3
308.15 K	1006.6 kg/m3 and 1007.4 kg/m3	–	1380.9	2.666
313.15 K	1002.1 kg/m3 and 1003 kg/m3	1.41733	1363.9	2.373
318.15 K	998.8 kg/m3	–	–	2.148
323.15 K	993.2 kg/m3 and 994.3 kg/m3	1.41368	1329.7	1.946
328.15 K	989.8 kg/m3	–	–	1.772
333.15 K	984.1 kg/m3 and 985.3 kg/m3	1.4101	1296.1	1.606
338.15 K	981 kg/m3	–	–	1.489
343.15 K	976.5 kg/m3 and 975 kg/m3	1.40635	1262.7	1.372
348.15 K	971.8 kg/m3	–	–	1.268
353.15 K	967.2 kg/m3	1.40241	–	1.155
358.15 K	962.5 kg/m3	–	–	1.094
363.15 K	957.9 kg/m3	–	–	1.019
368.15 K	953.1 kg/m3	–	–	0.95
373.15 K	948.5 kg/m3	–	–	0.877

Reference: the NIST ThermoML archive (doi:10.1021/acs.jced.5b00662)
